Results reported in patent US9125937B2, “Labelled analogues of halobenzamides as multimodal radiopharmaceuticals and their precursors” (INSTITUT NATIONAL DE LA SANTE ET DE LA RECHERCHE MEDICALE …, priority 2008, dated 2015).
Several values for one entry are separate records, joined by “and”; a condition that tells them apart may be missing. Equal entries are not always repeated. Structures can show the parent of a compound that is named as a salt.

Experiments:
B16 F0 murine melanoma = assay: Biodistribution study by planar scintigraphic imaging (gamma camera), tumour uptake quantification; assay type: in vivo, C57BL6 male mice; settings: i.v.
Procedure: (§1) Tumour Implantation. For transplantation, cells grown in monolayer culture to confluence were trypsinized and washed with phosphate buffer saline (PBS). They were resuspended in PBS and each mouse received 0.1 mL subcutaneously (3×10^5 cells) on the left flank in order to allow a tumour growth on the body side. Ten days later, the tumours became palpable with a percentage of tumour take of 98-100%.
The in vivo biodistribution and kinetic profile of each radiolabelled (iodine-125) compound have been studied in C57BL6 male mice bearing the B16 F0 murine melanoma by repeated planar scintigraphic imaging which allows the tumour uptake follow-up in the same animal.
Gamma Camera. In vivo radionuclide imaging was performed using a γ IMAGER (Biospace Mesures, Paris, France) especially dedicated for small animal, a scintigraphic camera with a continuous 4 mm thick×120 mm diameter CsI(Na) crystal, a position-sensitive Hamamatsu R3292 photomultiplier and a 10 cm field of view.
Imaging Protocol. On day 14 after tumour implantation (tumour weight 0.25±0.10 g) each [^125I]-radioiodinated compound was administered intravenously via a tail vein (0.1 μmol, range 3.7 to 7 MBq/animal) in three mice for each compound. At different times after administration (1, 3, 6, 24, 72 hours, 5, 7, 10 and 15 days), mice were anesthetized with 0.2 mL, for a 20 g mouse, of a ketamine-xylazine mixture in saline (1-0.25 mL for 5 mL) by i. p. administration, and repeated planar scintigraphic whole body imaging (mouse laying in anterior position on the camera field) were performed by an acquisition time of 10 min. For this study, the camera was equipped with a 1.8/0.2/20 collimator (hole diameter/septum thickness/height in mm).
Tumoural Radioactivity Quantification Approach. The injected activity to each mouse was determined from scintigraphic imaging of the syringe before and after the injection using the γ-IMAGER.
Regions of interest (ROIs) were delineated over the whole body image: whole body uptake area (or the various fixing areas, eyes, thyroid and abdomen) and one for the tumour uptake area. In the various ROIs, the activity (cpm) was quantified using the Biospace measures γ VISION+software. These values were normalized to the injected dose. For the tumour, the activity was also normalized to the tumour weight. Firstly, the volume was calculated from the two dimensions caliper measurement (Bissery, M. C.; Guenard, D.; Gueritte-Voegelin, F.; Lavelle, F. Experimental antitumour activity of taxotere (RP 56976, NSC 628503) a taxol analogue. Cancer res. 1991, 51, 4845-4852). Secondly, the weight was determined from the volume value corrected by a factor determined from a large panel of experiments (Weight g=volume mm^3×0.6). The data were expressed as % ID/g of B 16F0 melanoma tumour.

B16F0 melanoma tumour [1] = assay: Tumour uptake by whole body sectioning autoradiography; assay type: in vivo, mice
Excerpt: (ii) A comparison camera quantified in vivo values with values determined using the whole body sectioning conventional autoradiographic method has been done for several compounds. The correlation coefficient obtained between the two methods was 0.92.
(§2) (iii) For the compound N-(2-diethylaminoethyl)-6-iodoquinoxaline-2-carboxamide, which is described in PCT application n°PCT/IB2007/052992 as compound n°45 in table I of said patent application (hereinafter called “ICF01012”), the tumour uptake has been quantified by 3 methods: camera imaging, autoradiography and counting of tumour tissue after dissection (gamma counter), values are summarized below.

B16F0 melanoma tumour [2] = assay: Tumour uptake by counting of tumour tissue after dissection (gamma counter); assay type: in vivo, mice
Excerpt: as §2

[3] = tested on: subcutaneous B16F0 melanoma; assay: Radionuclide therapy experiment (anti-tumoural efficacy); assay type: in vivo, C57BL/6J mice
Procedure: Animals. All experiments were carried out in accordance with the institution recommendations based on the guide for the care and use of laboratory animals. For therapy experiment, we used 6- to 8-week-old C57BL/6J male mice (Charles River Laboratories).
as §1
[^131I]11 treatment was administered intravenously at days 6 and 10 after tumour implantation (2×18.5 MBq) in groups of 10 mice. In the same conditions untreated-animals were studied. From three days before the treatment and along the experiment, lugol's iodine solution was added in the two mice groups alimentation to block iodine thyroid uptake. To monitor tumoral growth, tumor volume in mm^3 was calculated twice a week from the measurement of two perpendicular diameters using a caliper according to the formula L×S^2/2 where L and S are the largest and smallest diameters in mm respectively. At day 19 of the experiment, mice were sacrificed. Tumours were removed, dissected and weighted.
Statistical Analyses. In experiment data are given as mean+SEM and were analyzed by the Student or ANOVA tests.
Anti-tumoural Efficacy of Targeted Radionuclide Therapy. To assess the therapeutic efficacy of compound [^131I]11 in C57BL/6J mice bearing subcutaneous B16F0 melanoma cells, we injected twice 18.5 MBq [^131I]11 into group of 10 mice. […] The body weight of mice in all groups was stable (data not shown). The weight of tumours at 19 days were 2.29±1.03 g and 0.72±0.28 g respectively for controls and treated.

Structure (SMILES): CCN(CCNC(=O)c1cnc2cc(I)ccc2n1)CCNc1cccc(F)n1.Cl.Cl
- melting point: 99 to 101 °C (dec.)

Structure (SMILES): CCN(CCNC(=O)c1ccnc(F)c1)CCNC(=O)c1cnc2cc(I)ccc2n1.Cl.Cl
- melting point: 157 to 159 °C

Structure (SMILES): CCN(CCNC(=O)c1ccc2cc(I)ccc2n1)CCOc1cccnc1F.Cl.Cl
- melting point: 99 to 101 °C (dec.)

Structure (SMILES): CCN(CCNC(=O)c1ccc2cc(I)ccc2c1)CCOc1cccnc1F.Cl
- melting point: 157 to 159 °C

Structure (SMILES): CCN(CCNC(=O)c1ccc2cncc(I)c2n1)CCOc1cccnc1F.Cl.Cl
- melting point: 131 to 133 °C (dec.)

Structure (SMILES): CCN(CCNC(=O)c1cn2cc(I)ccc2n1)CCOc1cccnc1F.Cl.Cl
- melting point: 143 to 145 °C

Structure (SMILES): CCN(CCNC(=O)c1cccc2nc3cc(I)ccc3nc12)CCOc1cccnc1F.Cl.Cl
- melting point: 127 to 129 °C (dec.)

Structure (SMILES): CCN(CCNC(=O)c1ccnc(F)c1)CCNC(=O)c1cnc2cc(I)ccc2n1 [Compound 39, N-[2-[N-ethyl-N-[2-[[(2-fluoropyridin-4-yl)carbonyl]amino]ethyl]amino]ethyl]-6-iodoquinoxaline-2-carboxamide]
- melting point: 146 to 148 °C

Structure (SMILES): CCN(CCNC(=O)c1cnc2cc(I)ccc2n1)CCNc1cccc(Br)n1 [Compound 63, N-[2-[N-[2-[(6-bromopyridin-2-yl)amino]ethyl]-N-(ethyl)amino]ethyl]-6-iodoquinoxaline-2-carboxamide]
- melting point: 49 to 51 °C and 50 °C

Structure (SMILES): CCN(CC)Cc1ccnc(F)c1CNC(=O)c1cnc2cc(I)ccc2n1 [Compound 91, N-[[4-(N,N-diethylaminomethyl)-2-fluoropyridin-3-yl]methyl]-6-iodoquinoxaline-2-carboxamide]
- melting point: 147 to 149 °C

Structure (SMILES): CCN(CC)CCNC(=O)c1cnc2ccc(I)cc2c1F [Compound 96, N-[2-(diethylamino)ethyl]-4-fluoro-6-iodoquinoline-3-carboxamide]
- melting point: 88 to 90 °C and 89 °C

Structure (SMILES): CCN(CC)CCNC(=O)c1cc(I)cc2c(F)ccnc12 [Compound 102, N-[2-(diethylamino)ethyl]-4-fluoro-6-iodoquinoline-8-carboxamide]
- melting point: 80 °C and 79 to 81 °C

Structure (SMILES): CCN(CC)CCNC(=O)c1cc(F)c2cc(I)ccc2n1 [Compound 106, N-[2-(diethylamino)ethyl]-4-fluoro-6-iodoquinoline-2-carboxamide]
- melting point: 59 °C and 58 to 60 °C

Structure (SMILES): CCN(CC)CCNC(=O)c1cc(F)c2cc([125I])ccc2n1 [[^125I]106, [^125I]N-[2-(diethylamino)ethyl]-4-fluoro-6-iodoquinoline-2-carboxamide]
- Radioactive concentration in tumour (tumoural uptake) (B16 F0 murine melanoma; 1 H post injection): 6.0 ± 1.3 % ID/g
- Radioactive concentration in tumour (tumoural uptake) (B16 F0 murine melanoma; 3 H post injection): 8.0 ± 0.9 % ID/g
- Radioactive concentration in tumour (tumoural uptake) (B16 F0 murine melanoma; 6 H post injection): 9.5 ± 1.8 % ID/g
- Radioactive concentration in tumour (tumoural uptake) (B16 F0 murine melanoma; 24 H post injection): 8.4 ± 0.8 % ID/g
- Radioactive concentration in tumour (tumoural uptake) (B16 F0 murine melanoma; 72 H post injection): 4.9 ± 1.2 % ID/g
- Radioactive concentration in tumour (tumoural uptake) (B16 F0 murine melanoma; 120 H post injection): 3.0 ± 0.1 % ID/g
- Radioactive concentration in tumour (tumoural uptake) (B16 F0 murine melanoma; 168 H post injection): 2.3 ± 0.6 % ID/g
- Radioactive concentration in tumour (tumoural uptake) (B16 F0 murine melanoma; 240 H post injection): 1.5 ± 0.1 % ID/g
- Radioactive concentration in tumour (tumoural uptake) (B16 F0 murine melanoma; 360 H (15 days) post injection): 0.7 ± 0.1 % ID/g

Structure (SMILES): CCN(CC)CCNC(=O)c1cnc2cc([125I])ccc2n1 [[^125I]ICF01012, reference compound]
- Radioactive concentration in tumour (B16F0 melanoma tumour [1]; 1 H): 17 ± 11.1 % ID/g
- Radioactive concentration in tumour (B16F0 melanoma tumour [1]; 3 H): 27.7 ± 7.0 % ID/g
- Radioactive concentration in tumour (B16F0 melanoma tumour [1]; 6 H): 36.4 ± 7.6 % ID/g
- Radioactive concentration in tumour (B16F0 melanoma tumour [1]; 24 H): 21.7 ± 10.8 % ID/g
- Radioactive concentration in tumour (B16F0 melanoma tumour [1]; 72 H): 12.5 ± 1.6 % ID/g
- Radioactive concentration in tumour (B16F0 melanoma tumour [2]; 1 H): 14.9 ± 5.7 % ID/g
- Radioactive concentration in tumour (B16F0 melanoma tumour [2]; 3 H): 28.1 ± 8.9 % ID/g
- Radioactive concentration in tumour (B16F0 melanoma tumour [2]; 6 H): 29.9 ± 2.8 % ID/g
- Radioactive concentration in tumour (B16F0 melanoma tumour [2]; 24 H): 29.7 ± 3.1 % ID/g
- Radioactive concentration in tumour (B16F0 melanoma tumour [2]; 72 H): 11.4 ± 2.6 % ID/g
- Radioactive concentration in tumour (tumoural uptake) (B16 F0 murine melanoma; 1 H post injection): 21.8 ± 6.6 % ID/g
- Radioactive concentration in tumour (tumoural uptake) (B16 F0 murine melanoma; 3 H post injection): 26.2 ± 6.6 % ID/g and 26.3 ± 6.6 % ID/g
- Radioactive concentration in tumour (tumoural uptake) (B16 F0 murine melanoma; 6 H post injection): 29.6 ± 8.4 % ID/g
- Radioactive concentration in tumour (tumoural uptake) (B16 F0 murine melanoma; 24 H post injection): 28.0 ± 8.1 % ID/g and 28.0 ± 8.2 % ID/g
- Radioactive concentration in tumour (tumoural uptake) (B16 F0 murine melanoma; 72 H post injection): 12.3 ± 3.7 % ID/g
- Radioactive concentration in tumour (tumoural uptake) (B16 F0 murine melanoma; 120 H post injection): 7.3 ± 3.6 % ID/g
- Radioactive concentration in tumour (tumoural uptake) (B16 F0 murine melanoma; 168 H post injection): 3.4 ± 0.3 % ID/g
- Radioactive concentration in tumour (tumoural uptake) (B16 F0 murine melanoma; 240 H post injection): 1.9 ± 0.4 % ID/g

Structure (SMILES): CCN(CCNC(=O)c1cnc2cc([131I])ccc2n1)CCOc1cccnc1F [[^131I]11, [^131I]N-[2-[N-ethyl-N-[2-(2-fluoropyridin-3-yloxy)ethyl]amino]ethyl]-6-iodoquinoxaline-2-carboxamide dihydrochloride salt]
- Weight of tumours at 19 days ([3]; 2×18.5 MBq i.v. at days 6 and 10, controls 2.29±1.03 g, p=0.01): 0.72 ± 0.28 g
- Tumour doubling time ([3]; 2×18.5 MBq i.v. at days 6 and 10 after tumour implantation, untreated 2.82±0.30 days): 3.83 ± 0.34 days
- Body weight of mice ([3]; all groups, data not shown): stable
- Ratio T/C of tumour weight at 19 days ([3]; treated vs controls): 0.31
- Effect on B16F0 tumoural growth ([3]; tumour volume, p<0.001 vs untreated): significantly slowed the B16F0 tumoural growth
